Test results: patent publication US20220402950A1, “SUBSTITUTED BENZIMIDAZOLES AS PAD4 INHIBITORS” (BRISTOL-MYERS SQUIBB COMPANY, priority 2018, published 2022)

What follows are compounds tested against human PAD4 (hPAD4) (Homo sapiens, UniProt Q9UM07) (assay: RFMS Human PAD4 Functional Assay). Details: hPAD4 RFMS IC50, human PAD4, rapid-fire mass spectrum (RFMS) assay; 5 nM hPAD4, 250 μM BAEE.
Sequence of human PAD4 (hPAD4) (Q9UM07 whole entry): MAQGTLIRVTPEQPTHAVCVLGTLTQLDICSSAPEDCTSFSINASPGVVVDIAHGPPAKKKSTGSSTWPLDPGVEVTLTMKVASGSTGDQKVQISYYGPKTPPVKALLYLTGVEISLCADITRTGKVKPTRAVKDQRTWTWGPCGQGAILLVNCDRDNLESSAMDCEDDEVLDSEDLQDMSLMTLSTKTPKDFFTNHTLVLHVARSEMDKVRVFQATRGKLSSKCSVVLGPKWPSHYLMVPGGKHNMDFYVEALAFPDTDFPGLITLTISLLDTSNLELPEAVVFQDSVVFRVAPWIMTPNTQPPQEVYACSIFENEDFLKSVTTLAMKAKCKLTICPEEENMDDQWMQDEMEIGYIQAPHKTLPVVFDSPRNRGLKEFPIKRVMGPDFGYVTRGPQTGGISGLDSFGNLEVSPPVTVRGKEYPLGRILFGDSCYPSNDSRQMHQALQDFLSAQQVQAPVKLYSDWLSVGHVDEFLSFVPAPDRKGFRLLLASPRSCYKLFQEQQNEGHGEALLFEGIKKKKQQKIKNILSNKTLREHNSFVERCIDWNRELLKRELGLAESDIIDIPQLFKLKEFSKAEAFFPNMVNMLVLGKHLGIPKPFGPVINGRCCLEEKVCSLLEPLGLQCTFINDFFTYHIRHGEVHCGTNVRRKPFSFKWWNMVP
Assay type: biochemical
Procedure: RFMS Human PAD4 Functional Assay:
Compounds were solubilized in 100% DMSO to achieve a 10 mM compound concentration. Compound stock solutions were stored at RT. A series of dilutions were prepared in DMSO and mixed 8 times with 20 μL mixing volume. Final top concentration of compound in the assay is 50 μM.
0.13 μL of compound solution was added to 13 μL of 10 nM PAD4 in assay buffer. After 30 min 13 μl of 500 μM of BAEE was added in 25 mM hepes, pH 7.5, 5 mM NaCl, 1 mM DTT, 0.2 mg/ml BSA, 0.01% CHAPS, 50 μM Calcium, 5 μM TPEN was added and the reaction incubated for 90 min at 37° C. The enzymatic reaction was quenched by addition of 15 μl of 6.1N TCA, 100% Final Concentration is 20%, 35 μl of 8.5 mM phenyl glyoxal (final concentration 4 mM) is then added and the reaction is incubated for 30 min at 37° C.
After 30 minutes the plates are spun down to remove all precipitate. The enzyme reaction was quenched with an equal volume of methanol containing internal standard (modified citrulline). Samples were loaded onto the Rapid Fire RF300 system (Agilent) wherein they were first sipped for 1000 ms and then directly loaded to a C18 separations cartridge using a mixture of acetonitrile containing 0.01% formic acid for 3000 ms desalting. The flow rate of the mobile phase was 1.5 ml/min.
The dwell time for each transition was set at 200 ms, and the ESI voltage was used at 5500 with a source temperature of 400° C. Extracted ion peaks for each transition were integrated using the Rapid Fire Integrator software. Peak area of analyte was normalized with internal standard.).
`COc1cc(C(=O)N2C[C@H]3CC[C@@H]2[C@@H]3N)cc2nc(-c3cc4cccc(Nc5c(C)n[nH]c5C)c4n3CC3CC3)n(C)c12` [Example 172, ((1R,4R,7R)-7-amino-2-azabicyclo[2.2.1]heptan-2-yl)(2-(1-(cyclopropylmethyl)-7-((3,5-dimethyl-1H-pyrazol-4-yl)amino)-1H-indol-2-yl)-7-methoxy-1-methyl-1H-benzo[d]imidazol-5-yl)methanone] showed an IC50 of 43 nM. For `COc1cc(C(=O)N2C[C@H]3CC[C@@H]2[C@@H]3N)cc2nc(-c3cc4cccc(C5CCN(C(=O)NC(C)C)CC5)c4n3CC3CC3)n(C)c12` [Example 252, 4-(2-(5-((1R,4R,7R)-7-amino-2-azabicyclo[2.2.1]heptane-2-carbonyl)-7-methoxy-1-methyl-1H-benzo[d]imidazol-2-yl)-1-(cyclopropylmethyl)-1H-indol-7-yl)-N-isopropylpiperidine-1-carboxamide], the IC50 was 58 nM. `COC(=O)c1cc(=O)[nH]c2ccc(-c3cccc4cc(-c5nc6cc(C(=O)N7C[C@H]8CC[C@@H]7[C@@H]8N)cc(OC)c6n5C)n(CC5CC5)c34)cc12` [Example 101, methyl 6-(2-{5-[(1R,4R,7R)-7-amino-2-azabicyclo[2.2.1]heptane-2-carbonyl]-7-methoxy-1-methyl-1H-1,3-benzodiazol-2-yl}-1-(cyclopropylmethyl)-1H-indol-7-yl)-2-oxo-1,2-dihydroquinoline-4-carboxylate] showed an IC50 of 47 nM. Compound `COc1cc(C(=O)N2C[C@H](N)C[C@@H](F)C2)cc2nc(-c3cc4cccc(-c5ccc6c(c5)C(C)(O)C(=O)N6)c4n3CC3CC3)n(C)c12` (stereo partly drawn) [Example 208, 5-(2-(5-((3R,5R)-3-amino-5-fluoropiperidine-1-carbonyl)-7-methoxy-1-methyl-1H-benzo[d]imidazol-2-yl)-1-(cyclopropylmethyl)-1H-indol-7-yl)-3-hydroxy-3-methylindolin-2-one] has an IC50 of 71 nM. With `COCC(=O)N1CCC(c2cccc3cc(-c4nc5cc(C(=O)N6C[C@H]7CC[C@@H]6[C@@H]7N)cc(OC)c5n4C)n(CC4CC4)c23)CC1` [Example 230, 1-(4-(2-(5-((1R,4R,7R)-7-amino-2-azabicyclo[2.2.1]heptane-2-carbonyl)-7-methoxy-1-methyl-1H-benzo[d]imidazol-2-yl)-1-(cyclopropylmethyl)-1H-indol-7-yl)piperidin-1-yl)-2-methoxyethan-1-one] the IC50 was 21 nM. `COc1cc(C(=O)N2C[C@H]3CC[C@@H]2[C@@H]3N)cc2nc(-c3cc4cccc(-c5ccc(C(N)=O)cc5F)c4n3CC3CC3)n(C)c12` [Example 191, 4-(2-(5-((1R,4R,7R)-7-amino-2-azabicyclo[2.2.1]heptane-2-carbonyl)-7-methoxy-1-methyl-1H-benzo[d]imidazol-2-yl)-1-(cyclopropylmethyl)-1H-indol-7-yl)-3-fluorobenzamide] was tested, and the IC50 was 81 nM. Compound `COc1cc(C(=O)N2C[C@H]3CC[C@@H]2[C@@H]3N)cc2nc(-c3cc4cccc(C5CC(C(=O)N6CC[C@H](O)C6)C5)c4n3CC3CC3)n(C)c12` (single isomer, unassigned) [Example 54] has an IC50 of 92 nM. Work on `COc1cc(C(=O)N2CC3CCC2[C@@H]3N)cc2nc(-c3cc4cccc(-c5ccoc5)c4n3CC3CC3)n(C)c12` (stereo partly drawn) [Example 129, ((7R)-7-amino-2-azabicyclo[2.2.1]heptan-2-yl)(2-(1-(cyclopropylmethyl)-7-(furan-3-yl)-1H-indol-2-yl)-7-methoxy-1-methyl-1H-benzo[d]imidazol-5-yl)methanone] yielded an IC50 of 194 nM. Work on `CCOCC(=O)N1CCC(c2cccc3cc(-c4nc5cc(C(=O)N6C[C@H]7CC[C@@H]6[C@@H]7N)cc(OC)c5n4C)n(CC4CC4)c23)CC1` [Example 234, 1-(4-(2-(5-((1R,4R,7R)-7-amino-2-azabicyclo[2.2.1]heptane-2-carbonyl)-7-methoxy-1-methyl-1H-benzo[d]imidazol-2-yl)-1-(cyclopropylmethyl)-1H-indol-7-yl)piperidin-1-yl)-2-ethoxyethan-1-one] yielded an IC50 of 49 nM. With `COc1cc(C(=O)N2C[C@H]3CC[C@@H]2[C@@H]3N)cc2nc(-c3cc4cccc(C5CCN(C(=O)NC6CC6)CC5)c4n3CC3CC3)n(C)c12` [Example 249, 4-(2-(5-((1R,4R,7R)-7-amino-2-azabicyclo[2.2.1]heptane-2-carbonyl)-7-methoxy-1-methyl-1H-benzo[d]imidazol-2-yl)-1-(cyclopropylmethyl)-1H-indol-7-yl)-N-cyclopropylpiperidine-1-carboxmaide] the IC50 was 8 nM. `COc1cc(C(=O)N2C[C@H]3CC[C@@H]2[C@@H]3N)cc2nc(-c3cc4cccc(C5CC(C(N)=O)C5)c4n3CC3CC3)n(C)c12` (single isomer, unassigned) [Example 45] was tested, and the IC50 was 25 nM. For `COc1cc(C(=O)N2C[C@H]3CC[C@@H]2[C@@H]3N)cc2nc(-c3cc4cccc(C5CN(C(=O)c6ccccc6)C5)c4n3CC3CC3)n(C)c12` [Example 74, (1R,4R,7R)-2-{2-[7-(1-benzoylazetidin-3-yl)-1-(cyclopropylmethyl)-1H-indol-2-yl]-7-methoxy-1-methyl-1H-1,3-benzodiazole-5-carbonyl}-2-azabicyclo[2.2.1]heptan-7-amine], the IC50 was 71 nM. With `COc1cc(C(=O)N2C[C@H]3CC[C@@H]2[C@@H]3N)cc2nc(-c3cc4cccc(C5CCN(C(=O)Nc6cccc(F)c6)CC5)c4n3CC3CC3)n(C)c12` [Example 242, 4-(2-(5-((1R,4R,7R)-7-amino-2-azabicyclo[2.2.1]heptane-2-carbonyl)-7-methoxy-1-methyl-1H-benzo[d]imidazol-2-yl)-1-(cyclopropylmethyl)-1H-indol-7-yl)-N-(3-fluorophenyl)piperidine-1-carboxamide] the IC50 was 30 nM. `COc1cc(C(=O)N2C[C@H]3CC[C@@H]2[C@@H]3N)cc2nc(-c3cc4cccc(C5CCN(C(=O)C(C)OC)CC5)c4n3CC3CC3)n(C)c12` (stereo partly drawn) [Example 238, 1-(4-(2-(5-((1R,4R,7R)-7-amino-2-azabicyclo[2.2.1]heptane-2-carbonyl)-7-methoxy-1-methyl-1H-benzo[d]imidazol-2-yl)-1-(cyclopropylmethyl)-1H-indol-7-yl)piperidin-1-yl)-2-methoxypropan-1-one] gave an IC50 of 104 nM. For `COc1cc(C(=O)N2C[C@H]3CC[C@@H]2[C@@H]3N)cc2nc(-c3cc4cccc(-c5ccc(O)c(Cl)c5)c4n3CC3CC3)n(C)c12` [Example 92, 4-(2-{5-[(1R,4R,7R)-7-amino-2-azabicyclo[2.2.1]heptane-2-carbonyl]-7-methoxy-1-methyl-1H-1,3-benzodiazol-2-yl}-1-(cyclopropylmethyl)-1H-indol-7-yl)-2-chlorophenol], the IC50 was 58 nM. Work on `COc1cc(C(=O)N2C[C@H](N)C[C@@H](F)C2)cc2nc(-c3cc4cccc(C5CN(C(C)=O)C5)c4n3C)n(Cc3cnn(C)c3)c12` [Example 215, 1-(3-(2-(5-((3R,5R)-3-amino-5-fluoropiperidine-1-carbonyl)-7-methoxy-1-((1-methyl-1H-pyrazol-4-yl)methyl)-1H-benzo[d]imidazol-2-yl)-1-methyl-1H-indol-7-yl)azetidin-1-yl)ethane-1-one] yielded an IC50 of 183 nM. `COc1cc(C(=O)N2C[C@H]3CC[C@@H]2[C@@H]3N)cc2nc(-c3cc4cccc(-c5ccc6c(c5)CCC(=O)N6)c4n3CC3CC3)n(C)c12` [Example 99, 6-(2-{5-[(1R,4R,7R)-7-amino-2-azabicyclo[2.2.1]heptane-2-carbonyl]-7-methoxy-1-methyl-1H-1,3-benzodiazol-2-yl}-1-(cyclopropylmethyl)-1H-indol-7-yl)-1,2,3,4-tetrahydroquinolin-2-one] showed an IC50 of 38 nM.

Same assay, conditions: human PAD4, rapid-fire mass spectrum (RFMS) assay; 5 nM hPAD4, 250 μM BAEE; read-out: hPAD4 RFMS IC50
Work on `COc1cc(C(=O)N2C[C@H]3CC[C@@H]2[C@@H]3N)cc2nc(-c3cc4cccc(Br)c4n3CC3CC3)n(C)c12` [Example 1, ((1R,4R,7R)-7-amino-2-azabicyclo[2.2.1]heptan-2-yl)(2-(7-bromo-1-(cyclopropylmethyl)-1H-indol-2-yl)-7-methoxy-1-methyl-1H-benzo[d]imidazol-5-yl)methanone] yielded an IC50 of 162 nM. In the case of `CNC(=O)C1CC(c2cccc3cc(-c4nc5cc(C(=O)N6C[C@H]7CC[C@@H]6[C@@H]7N)cc(OC)c5n4C)n(CC4CC4)c23)C1` (single isomer, unassigned) [Example 43], the IC50 is reported as 20 nM. `COc1cc(C(=O)N2C[C@H]3CC[C@@H]2[C@@H]3N)cc2nc(-c3cc4cccc(C5CCCC(C(N)=O)C5)c4n3CC3CC3)n(C)c12` (single isomer, unassigned) [Example 85] showed an IC50 of 49 nM. `CNC(=O)C1CC(c2cccc3cc(-c4nc5cc(C(=O)N6C[C@H](N)C[C@@H](F)C6)cc(OC)c5n4C)n(CC4CC4)c23)C1` (single isomer, unassigned) [Example 111] gave an IC50 of 76 nM. With `COc1cc(C(=O)N2C[C@H]3CC[C@@H]2[C@@H]3N)cc2nc(-c3cc4cccc(C(N)=O)c4n3CC3CC3)n(C)c12` [Example 184, 2-(5-((1R,4R,7R)-7-Amino-2-azabicyclo[2.2.1]heptane-2-carbonyl)-7-methoxy-1-methyl-1H-benzo[d]imidazol-2-yl)-1-(cyclopropylmethyl)-1H-indole-7-carboxamide] the IC50 was 74 nM.
